According to US9303009B2, “Migrastatins and uses thereof” (Sloan-Kettering Institute for Cancer Research, priority 2011, dated 2016):

Tests used:
[1] = test system: multiple myeloma (RPMI8226, MM1S, ARP-GL, CAG-GL, OPM2-GL, SKO-007-GL, U266-GL, MM1R cells); assay: toxicity by alamarBlue, multiple myeloma cell lines; format: cell-based, human; conditions: mean of 8 cell lines
Procedure: (§1) The toxicity of compounds 42-45 and their IC50 was determined on a panel of human tumor cell lines of multiple myeloma (RPMI8226, MM1S, MM1R, ARP-GL, CAG-GL, OPM2-GL, SKO-007-GL, U266-GL,) and lung cancer (H299-GL, H522-GL, H647-GL, A549-GL, A549-GL, HI993, H1075-GL, HI373, H17030) origin. Tumor cells were dissociated into a single-cell suspension by Trypsin/Collagenase IV treatment and 500 cells per well were aliquoted into each well of 384 microwell plates in 50 μl of RPMI medium with 10% FCS. Compounds 42-45 were dissolved in DMSO and serially diluted in RPMI medium plus 10% FCS and added (1 mM to 1 nM) to quadruplicate wells containing tumor cells. Dilutions of DMSO without compound were used as a control. After 18 hrs or 2 days, the cultures were pulsed with 6 μl of alamarBlue® (Invitrogen Inc. Grand Island, N.Y.) and incubated overnight. The alamarBlue® provides a cell growth indicator based on detection of metabolic activity. The assay system incorporates an oxidation-reduction indicator that both fluoresces and changes color in response to chemical reduction of growth medium resulting from cell growth. The fluorescence intensity was measured using a Synergy H1 Microplate Reader (Biotek Inc, Winooski, VT) and a dose-response curve established for IC50 determination.

[2] = test system: human tumor cell lines of multiple myeloma and lung cancer; assay: toxicity by alamarBlue, whole panel; format: cell-based
Procedure: as §1

[3] = test system: lung cancer (H299-GL, H522-GL, H647-GL, A549-GL, H1993, H1075-GL, H1373-GL H1703 cells); assay: toxicity by alamarBlue, lung cancer cell lines; format: cell-based; conditions: mean of 8 cell lines
Procedure: Dilutions of DMSO without compound were used as a control. After 18 hrs or 2 days, the cultures were pulsed with 6 μl of alamarBlue® (Invitrogen Inc. Grand Island, N.Y.) and incubated overnight. The alamarBlue® provides a cell growth indicator based on detection of metabolic activity. The assay system incorporates an oxidation-reduction indicator that both fluoresces and changes color in response to chemical reduction of growth medium resulting from cell growth. The fluorescence intensity was measured using a Synergy H1 Microplate Reader (Biotek Inc, Winooski, VT) and a dose-response curve established for IC50 determination.

[4] = test system: CAG multiple myeloma cells; assay: multiple myeloma transwell migration towards SDF-1α; format: cell-based; conditions: pretreatment 8 h, transmigration 6 h
Procedure: (§2) Multiple myeloma cell chemotaxis was performed towards a SDF-1α in a modified Boyden chamber consisting of a cell culture insert (4.26 mm diameter, 8-μm pore polyester membrane) seated in each well of a 96-well plate (HTS Transwell-96 System, Corning). Briefly, multiple myeloma cells were grown as subconfluent cultures then starved for 24 hours in serum-free IMDM medium. Single-cell suspensions were prepared by mechanical dissociation, then the cells were counted and a total of 5.10^4 cells suspended in serum-free IMDM medium were seeded into the upper chamber, then positioned in a 96-well plate, containing medium with or without SDF-1α (at 200 ng/mL). […] Migrastatin analogs or DMSO (vehicle) were added to the medium at 0.5% in both chambers. Migration assays were carried out for 6 hours in a humidified incubator at 37° C. with 5% CO2. At the assay endpoint, the inserts were removed and the migrating cells were counted in the well. The migration in response to the test condition was calculated relative to the DMSO vehicle control.

[5] = test system: H929 multiple myeloma cells; assay: as above; format: cell-based; conditions: pretreatment 8 h, transmigration 6 h
Procedure: as §2

| SMILES | Estimated lethal doses (LD50) ([1]; 18 h exposure) [µM] | Estimated lethal doses (LD50) ([1]; 48 h exposure) [µM] | IC50 [2] [µM] | Estimated lethal doses (LD50) ([3]; 18 h exposure) [µM] | Estimated lethal doses (LD50) ([3]; 48 h exposure) [µM] | % of migration relative to DMSO control ([4]; 5 μM) [%] | % of migration relative to DMSO control ([4]; 250 μM) [%] | % of migration relative to DMSO control ([5]; 5 μM) [%] | % of migration relative to DMSO control ([5]; 250 μM) [%] |
| --- | --- | --- | --- | --- | --- | --- | --- | --- | --- |
| COC(=O)CO[C@H]1[C@H](C)/C=C(/C)COCCCCC/C=C/[C@@H]1OC [Compound 42] | 515.2 | 476.4 | 300 to 795 | 741.2 | 602.7 | 93.63 | 0.23 | 91.03 | 7.08 |
| CNC(=O)CO[C@H]1[C@H](C)/C=C(/C)COCCCCC/C=C/[C@@H]1OC [Compound 44] | 182.5 | 210.6 | 300 to 795 | 299.7 | 316.7 | 86.22 | 0.05 | 81.48 | 4.06 |
| CO[C@H]1/C=C/CCCCCOC/C(C)=C\[C@@H](C)[C@@H]1OCCO [Compound 43] | 530.8 | 406.1 | 300 to 795 | 523.9 | 510.7 | 82.04 | 0.71 | 52.26 | 0.98 |
| CCNC(=O)O[C@H]1[C@H](C)/C=C(/C)COCCCCC/C=C/[C@@H]1OC [Compound 45] | 275.6 | 217.3 | 300 to 795 | 446.9 | 446.8 | 54.48 | 0.58 | 62.38 | 5.51 |
